US20060148858A1, “1, 2-Azole derivatives with hypoglycemic and hypolipidemic activity” (priority 2002, published 2006)
Read-outs that look alike come from different tables or passages of the source.

Legend:
KKAY mice [1] = experiment: Hypoglycemic and hypolipidemic actions in mice (Test Example 1); format: in vivo; settings: Mus musculus, po, 96 h, 0.005% in powdery diet, four days, non-treated group taken as 100%
How it was run: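 KKAY mice (9 to 12 weeks old, 5 per group) were fed diet containing 0.005% test compound ad libitum for four days. Plasma glucose and triglycerides from orbital venous blood were measured enzymatically, reported as % decrease relative to untreated group (100%).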

KKAY mice [2] = experiment: Plasma anti-arteriosclerosis index-enhancing action in mice (Test Example 2); format: in vivo; settings: Mus musculus, po, 96 h, 0.005% in powdery diet, four days, percent increase of (HDL cholesterol/total cholesterol)x100, non-treatment group taken as 100%
Procedure: Test compounds were mixed in a powdery diet (CE-2, Japan Clea) at the concentration of 0.005%, and freely given to KKAY mice (9 to 12 weeks old, 5 mice per group), a model of obese and non-insulin dependent diabetes (type 2 diabetes), for four days. During this period, water was given freely. Blood was sampled from orbital venous plexus and components in plasma separated from blood were determined. Total cholesterol levels were determined by using L type Wako Cholesterol (Wako Pure Chemical Industries, Ltd.). Precipitation reagent for HDL cholesterol (Wako Pure Chemical Industries, Ltd.) was added to a part of the plasma to precipitate non-HDL lipoprotein, and cholesterol (HDL cholesterol) in the resulting supernatant was determined. The plasma anti-arteriosclerosis index [(HDL cholesterol/total cholesterol)×100] was calculated by using these cholesterol levels.
In the Table, “Plasma anti-arteriosclerosis index-enhancing action (%)” represents the percent increase (%) of plasma anti-arteriosclerosis index in the treatment group, when the plasma anti-arteriosclerosis index in the non-treatment group is taken as 100%.

PPARγ-RXRα heterodimer = biological target: T1, PPARγ-RXRα heterodimer (Homo sapiens, UniProt P37231); experiment: PPARγ-RXRα heterodimer ligand activity, luciferase reporter in PPARγ:RXRα:4ERPP/CHO-K1 cells (Test Example 3); format: cell-based; settings: 18-48 hours, concentration for 50% of the maximum fold induction
T1 construct: expressed in transfected cells; host or cells: CHO-K1
T1 sequence (P37231 1-477 isoform P37231-2): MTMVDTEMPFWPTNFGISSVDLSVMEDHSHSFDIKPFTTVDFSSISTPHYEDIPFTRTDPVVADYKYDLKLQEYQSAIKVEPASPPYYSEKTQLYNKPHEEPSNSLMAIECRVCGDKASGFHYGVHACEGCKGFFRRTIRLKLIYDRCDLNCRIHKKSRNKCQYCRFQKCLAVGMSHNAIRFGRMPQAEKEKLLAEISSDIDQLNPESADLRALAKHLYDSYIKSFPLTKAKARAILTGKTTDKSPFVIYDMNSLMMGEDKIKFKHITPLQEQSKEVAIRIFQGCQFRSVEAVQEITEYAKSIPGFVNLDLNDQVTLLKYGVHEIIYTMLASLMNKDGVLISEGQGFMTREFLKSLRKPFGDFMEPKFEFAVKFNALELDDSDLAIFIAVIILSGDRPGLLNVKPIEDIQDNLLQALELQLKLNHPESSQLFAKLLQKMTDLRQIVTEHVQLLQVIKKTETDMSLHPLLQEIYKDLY
T1 sequence (P19793 1-462 partner): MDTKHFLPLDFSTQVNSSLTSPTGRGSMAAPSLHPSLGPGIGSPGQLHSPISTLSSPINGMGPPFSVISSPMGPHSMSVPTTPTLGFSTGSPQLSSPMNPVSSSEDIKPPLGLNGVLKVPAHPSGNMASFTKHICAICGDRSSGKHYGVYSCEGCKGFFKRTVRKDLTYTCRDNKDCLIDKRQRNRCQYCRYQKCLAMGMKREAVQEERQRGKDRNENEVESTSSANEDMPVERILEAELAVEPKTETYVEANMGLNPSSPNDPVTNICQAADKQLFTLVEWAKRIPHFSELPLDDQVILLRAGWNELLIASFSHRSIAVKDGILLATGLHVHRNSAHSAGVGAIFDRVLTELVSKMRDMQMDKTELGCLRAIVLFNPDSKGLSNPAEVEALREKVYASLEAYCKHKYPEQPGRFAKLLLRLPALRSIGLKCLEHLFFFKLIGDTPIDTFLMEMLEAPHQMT
Procedure: A PPARγ: RXRα: 4ERPP/CHO-K1 cells obtained in Reference Example 8a described later were cultured in HAM F12 medium (produced by Life Technologies, Inc., USA) containing 10% Fetal bovine serum (produced by Life Technologies, Inc., USA) and then inoculated to a 96-well white plate (produced by Corning Costar Corporation, USA) at the density of 2×10^4 cells/well, and cultured in a CO2 gas incubator at 37° C. overnight.
After removing the medium from 96 well white plate, 80 μl of HAM F12 medium containing 0.1% fatty acid-free bovine serum albumin (BSA) and 20 μl of test compound were added, which was cultured in a CO2 gas incubator at 37° C. for 18-48 hours. After removing the medium, 40 μl of PIKKAGENE 7.5 (produced by Wako Pure Chemical Industries, Ltd.) diluted twice with HBSS (HANKS' BALANCED SALT SOLUTION)(produced by BIO WHITTAKER Inc., USA), was added. After stirring, the luciferase activity was determined using 1420 ARVO Multilabel Counter (produced by PerkinElmer Inc., USA).
A fold induction was calculated based on the luciferase activity of each test compound by taking the luciferase activity in the non-treatment group as 1. The values of the test compound concentration and the fold induction were analyzed using PRISM (produced by GraphPad Software Inc. USA) to calculate the EC50 values, the effective concentration of a test compound for 50% of the maximum fold induction.
After a CHO-K1 cell cultured in a 150 cm^2 cell culture flask (750 ml)(produced by Corning Costar Corporation, USA) containing HAM F12 medium (produced by Life Technologies, Inc., USA) supplemented with 10% Fetal Bovine Serum (produced by Life Technologies, Inc., USA) was scraped by treating with 0.5 g/L trypsin-0.2 g/L EDTA (ethylenediaminetetraacetic acid) (produced by Life Technologies, Inc., USA), the cell was washed with PBS (phosphate-buffered saline) (produced by Life Technologies, Inc., USA), centrifuged (1000 rpm, 5 minutes), and then suspended in PBS. Subsequently, a DNA was introduced into the cell under the condition shown below using GENE PULSER (produced by Bio-Rad Laboratories, USA).
Namely, to a cuvette having a 0.4 cm gap, added were 8×10^6 cells and 10 μg of plasmid pVgRXR2-hPPARγ obtained in Reference Example 7a and 10 μg of reporter plasmid pGL3-4ERPP-TK neo obtained in Reference Example 5a, which was subjected to electroporation at the voltage of 0.25 kV under the capacitance of 960 μF. Subsequently, the cell was transferred into a HAM F12 medium containing 10% Fetal Bovine Serum and cultured for 24 hours and then the cell was scraped again and centrifuged, and then suspended in HAM F12 medium containing 10% Fetal Bovine Serum supplemented with 500 μg/ml of GENETICIN (produced by Life Technologies, Inc., USA) and 250 μg/ml of ZEOCIN (produced by Invitrogen, USA). The obtained suspension was diluted to the density of 10^4 cells/ml and inoculated to a 96-well plate (produced by Corning Costar Corporation, USA), which was cultured in a CO2 gas incubator at 37° C., whereby obtaining a GENETICIN- and ZEOCIN-resistant transformant.
Subsequently, after the transformant cell line thus obtained was cultured in a 24-well plate (produced by Corning Costar Corporation, USA), selected was a cell line in which the luciferase was expressed and induced, i.e., PPARγ:RXRα:4ERPP/CHO-K1 cell by addition of 10 μM of pioglitazone hydrochloride.

[3] = rate of decrease in blood glucose level, read-out: Hypoglycemic action (%)
[4] = rate of decrease in blood triglyceride level, read-out: Hypolipidemic action (%)

SMILES | inhibition in vivo at 0.005 % in diet (KKAY mice [1]; [3]) [%] | inhibition in vivo at 0.005 % in diet (KKAY mice [1]; [4]) [%] | change in vivo at 0.005 % in diet (KKAY mice [2]) [%] | melting point [°C] | EC50 (PPARγ-RXRα heterodimer) [nM]
COc1cccc(CC(=O)O)c1OCCCc1cn(-c2ccc(C(F)(F)F)cc2)nc1C(C)C [Example 185, [2-(3-{3-isopropyl-1-[4-(trifluoromethyl)phenyl]-1H-pyrazol-4-yl}propoxy)-3-methoxyphenyl]acetic acid] | 47 | 43 | 15 | 114 to 115 | 
CCC(CC)c1nn(-c2ccc(Cl)cn2)cc1CCCOc1c(C)cccc1CC(=O)O [Example 224, (2-{3-[1-(5-chloro-2-pyridyl)-3-(1-ethylpropyl)-1H-pyrazol-4-yl]propoxy}-3-methylphenyl)acetic acid] | 48 | 60 | 14 | 106 to 107 | 
CCOc1cccc(CC(=O)O)c1OCCCc1cn(-c2ccc(Cl)cn2)nc1C(CC)CC [Example 225, (2-{3-[1-(5-chloro-2-pyridyl)-3-(1-ethylpropyl)-1H-pyrazol-4-yl]propoxy}-3-ethoxyphenyl)acetic acid] | 31 | 35 | 12 | 92 to 93 | 
CC(C)c1nn(-c2ccc(C(F)(F)F)cn2)cc1CCCOc1c(Cl)cccc1CC(=O)O [Example 239, [3-chloro-2-(3-{3-isopropyl-1-[5-(trifluoromethyl)-2-pyridinyl]-1H-pyrazol-4-yl}propoxy)phenyl]acetic acid] | 42 | 65 |  | 141 to 142 | 35
CCc1cccc(CC(=O)O)c1OCCCc1cn(-c2ccc(Cl)cn2)nc1C(CC)CC [Example 253, (2-{3-[1-(5-chloro-2-pyridinyl)-3-(1-ethylpropyl)-1H-pyrazol-4-yl]propoxy}-3-ethylphenyl)acetic acid] | 49 | 35 | 16 | 114 to 115 | 
CCCc1nn(-c2ccc(C(F)(F)F)cn2)cc1CCCOc1c(CC(=O)O)cccc1OCC [Example 260, [3-ethoxy-2-(3-{3-propyl-1-[5-(trifluoromethyl)-2-pyridyl]-1H-pyrazol-4-yl}propoxy)phenyl]acetic acid] | 42 | 44 | 22 | 133 to 134 | 
COc1cccc(CC(=O)O)c1OCCCc1cn(-c2ccc(C)cn2)nc1C(C)C [Example 272, (3-methoxy-2-{3-[3-isopropyl-1-(5-methyl-2-pyridyl)-1H-pyrazol-4-yl]propoxy}phenyl)acetic acid] | 48 | 69 |  | 132 to 133 | 50
CC(C)c1nn(-c2ccc(C(F)(F)F)cn2)cc1CCCOc1nn(C)cc1CC(=O)O [Example 299, [3-(3-{3-isopropyl-1-[5-(trifluoromethyl)-2-pyridinyl]-1H-pyrazol-4-yl}propoxy)-1-methyl-1H-pyrazol-4-yl]acetic acid] |  |  | 11 | 122 to 123 | 
CCOc1cccc(CC(=O)O)c1OCCCc1cn(-c2ccc(C(F)(F)F)cn2)nc1C(C)C [Example 300, [3-ethoxy-2-(3-{3-isopropyl-1-[5-(trifluoromethyl)-2-pyridinyl]-1H-pyrazol-4-yl}propoxy)phenyl]acetic acid] | 36 | 39 | 12 | 141 to 142 | 
CC(C)c1nn(-c2ccc(C(F)(F)F)cn2)cc1CCCOc1c(CC(=O)O)cnn1C [Example 318, [5-(3-{3-isopropyl-1-[5-(trifluoromethyl)-2-pyridinyl]-1H-pyrazol-4-yl}propoxy)-1-methyl-1H-pyrazol-4-yl]acetic acid] |  |  | 22 | 146 to 148 | 
CCn1ncc(CC(=O)O)c1OCCCc1cn(-c2ccc(C(F)(F)F)cn2)nc1C(C)C [Example 322, [1-ethyl-5-(3-{3-isopropyl-1-[5-(trifluoromethyl)-2-pyridinyl]-1H-pyrazol-4-yl}propoxy)-1H-pyrazol-4-yl]acetic acid] |  |  | 14 | 120 to 121 | 
CCOc1nn(-c2ccc(C(F)(F)F)cn2)cc1CCCOc1nn(CC)cc1CC(=O)O [Example 335, [3-(3-{3-ethoxy-1-[5-(trifluoromethyl)-2-pyridinyl]-1H-pyrazol-4-yl}propoxy)-1-ethyl-1H-pyrazol-4-yl]acetic acid] |  |  | 12 | 108 to 109 | 
COc1cccc(CC(=O)O)c1OCCCc1cn(-c2ccc(C#N)nn2)nc1C(C)C [Example 337, (2-{3-[1-(6-cyanopyridazin-3-yl)-3-isopropyl-1H-pyrazol-4-yl]propoxy}-3-methoxyphenyl)acetic acid] | 44 | 48 | 24 |  | 
